Measured values: patent publication US20240009205A1, “THERAPEUTIC COMBINATION FOR THE TREATMENT OF BREAST CANCER” (IFOM - FONDAZIONE ISTITUTO FIRC DI ONCOLOGIA MOLECOLARE, priority 2020, published 2024)
Read-outs that look alike come from different tables or passages of the source.

How the values were obtained:
[1] = system: EGR1, PTEN and 4E-BP1 levels in MCF7 cells; test: immunoblotting of EGR1, PTEN and 4E-BP1 in MCF7; format: cell-based, human; settings: supplementation
Protocol: For protein lysate generation from cultured cells, 5×10^4 MCF7, T47D or ZR-75-1 cells were plated in 6-well plates in CTR medium. After 24 h medium was removed, cells were washed with PBS and incubated either in CTR or STS medium. […] Where indicated, cells were supplemented with insulin ([…]), IGF1 (5 ng/ml), leptin ([…]), or 17β-estradiol (100 nM). 24 h later, cells were washed and protein lysates were generated as described elsewhere^34,35. Protein lysates from primary tumors or mouse uteri were obtained using TissueRuptor (Quiagen). Proteins (35 μg) were separated by SDS-PAGE, transferred to a PVDF membrane (Immobilon-P, Millipore S.p.A.), and detected with the following antibodies: anti-phospho-AKT (Ser473; #4058), anti-AKT (#9272), anti-PTEN (#9552), anti-phospho-p70S6kinase (Thr389; #9206), anti-p70S6kinase (#9202), anti-4E-BP1 (#4923), anti-phospho-eIF4E ([…]; #9741), anti-phospho-RB (Ser807/811; #9308), anti-RB (#9309), anti-CCND1 (#2978) were all from Cell Signaling Technology; anti-phospho-AMPK (Thr172; PA5-2 17831), anti-AMPK (PA5-29679), anti-EGR1 (MA5-15008) were from Thermo Fisher; anti-β-actin was from Santa Cruz Biotechnology. Band intensities were quantified by Quantity One SW software (Bio-Rad Laboratories, Inc.) using standard enhanced chemiluminescence.

[2] = system: metastases-derived organoids from patients with HR+ BC; test: organoid viability assay; format: cell-based, human; settings: TMX with STS medium
[3] = system: ER transcriptional activity; test: ER luciferase reporter assay and ER target gene expression; format: cell-based, human; settings: HR+ BC cell lines, TFF1, PGR, GREB1 expression
[4] = system: MCF7 cells; test: gene expression microarrays and GSEA in MCF7; format: cell-based, human; settings: 5 μM TMX combined with STS
[5] = system: HR+/HER2− BC cell lines; settings: cited from earlier work
[6] = system: MCF7 cells; test: cell viability assay, control and EGR1-silenced MCF7; format: cell-based, human

## C[C@]12CC[C@@H]3c4ccc(O)cc4CC[C@H]3[C@@H]1CC[C@@H]2O [17β-estradiol]
[1]
  increase in EGR1, PTEN and 4E-BP1 induced by the TMX-STS combination: prevented the increase in EGR1, PTEN and 4E-PBP1

## CC/C(=C(\c1ccccc1)c1ccc(OCCN(C)C)cc1)c1ccccc1 [TMX, tamoxifen]
[2]
  antitumor activity under STS: increased the antitumor activity
[3]
  ER inhibition under STS: enhanced
[4]
  cell cycle-related gene categories (GSEA): downregulation
[5]
  antitumor activity under STS (low-serum, low-glucose): increased the antitumor activity

## AZD5363
[6]
  protection of EGR1-silenced BC cells from combined ET and STS: abolished such protection

## C[C@]12CC[C@@H]3c4ccc(O)cc4C[C@@H](CCCCCCCCC[S+]([O-])CCCC(F)(F)C(F)(F)F)[C@H]3[C@@H]1CC[C@@H]2O (stereo partly drawn) [FULV, fulvestrant]
[3]
  ER inhibition under STS: enhanced
[5]
  antitumor activity under STS (low-serum, low-glucose): increased the antitumor activity

## CC(C)NC[C@@H](C(=O)N1CCN(c2ncnc3c2[C@H](C)C[C@H]3O)CC1)c1ccc(Cl)cc1 [GDC0068]
[6]; GDC0068 1 μM, AZD5363 400 nM, LY294002 2 μM
  protection of EGR1-silenced BC cells from combined ET and STS: abolished such protection
